In data set [1] the test system is c-Jun. The data set can be described thus: Western blot, phosphorylated c-Jun in HL-60 cells. It is filed as cell-based, human. To be noted: pretreatment with SB203580 (50 AM), then HAs 3 mg/ml 6 h. How it is done:
(§1) The medium was removed, and the cells were rinsed with TBS at room temperature. Then 500 μl of cold RIPA buffer (1% NP-40, 50 mM Tris-base, 0.1% SDS, 0.5% deoxycholic acid, and 150 mM NaCl, pH 7.5) with three kinds of proteinase freshly added (10 μg/ml leupeptin, 10 μg/ml PMSF, and 17 μg/ml sodium orthovanadate) were used. After sonication for 1 h at 4° C., a centrifugation (10,000×g) of cell lysate was performed for 10 min at 4° C. The supernatant (50 μg protein) was mixed with an equal volume of electrophoresis sample buffer and boiled for 10 min, which was then subjected to SDS-polyacrylamide gel electrophoresis using a 10% running gel, and electroblotted to nitrocellulose membranes (Millipore, Bedford, Mass., USA). Nonspecific binding was blocked by incubation of the membrane with TBS containing 1% (W/V) nonfat dry milk and 0.1% (v/v) Tween-20 (TBST) for more than 2 h. Membranes were washed with TBST three times for 10 min and incubated with appropriate dilution of primary antibody in TBST for 2 h. Membranes were then extensively washed with TBST before being incubated with appropriate horseradish peroxidase-conjugated secondary antibody for 1 h. After washing the membrane three times, 10 min each in TBST, detection was performed using ECLWestern blotting detection reagents (Amersham, Arlington Heights, Ill., USA).
For orientation: Immunoblotting shows a protein as a band on a membrane.

For data set [2], the system named is Fas. Description: Western blot, Fas expression in HL-60 cells. Type of data set: cell-based, human. To be noted: pretreatment with SB203580 (50 AM), then HAs 3 mg/ml 6 h. How it is done: as §1
For data set [3], the system named is FasL. The data set can be described thus: Western blot, FasL expression in HL-60 cells. Type of data set: cell-based, human. To be noted: pretreatment with SB203580 (50 AM), then HAs 3 mg/ml 6 h. How it is done:
as §1

In data set [4] the test system is HL-60 cells. The data set can be described thus: Flow cytometry (PI) cell cycle and quantification of apoptosis. To be noted: for effect of inhibitor on HAs-induced apoptosis (cytotoxic action of HAs): PD98059 25 AM, SP600125 20 AM, wortmannin 1 AM, then HAs 3 mg/ml 24 h.
Experimental: Flow cytometric analysis of HL-60 cells was performed on the 24-h cultures using a FACScan. The cells of harvest were centrifuged at 1000 rpm for 5 min at room temperature. Thereafter, cells were washed once with Tris-buffered saline (TBS). Then cell suspension was centrifuged again (1000 rpm, 5 min) and resuspended in 70% ethanol. After incubation at −20 for at least 24 h, the cells were resuspended in 1 ml of cell cycle assay buffer [50 μg/ml propidium iodide (PI), 50 μg/ml RNase A, and 0.1% Triton X-100], and it was incubated for 15 min in darkness. Propidium iodide (Sigma) was excited at 488 nm, and fluorescence signal was subjected to logarithmic amplification with PI fluorescence (red) being detected above 600 nm. Cell cycle distribution is presented as the number of cells versus the amount of DNA as indicated by the intensity of fluorescence, and the extent of apoptosis was determined by counting cells of DNA content below the G0/G1 peak.

Regarding `C[S+]([O-])c1ccc(-c2nc(-c3ccc(F)cc3)c(-c3ccncc3)[nH]2)cc1` (stereo not shown) [SB203580, 4-[4-fluorophenyl]-2-[4-methylsulfinylphenyl]-5-[4-pyridyl]-1H-imidazole], the “c-Jun (phospho-c-Jun) expression” value in data set [1] is “down-regulated”. In data set [2], the Fas expression entry is on record as “down-regulated”. In data set [3], the FasL expression entry is “down-regulated”. For the same compound, in data set [4] (50 AM SB203580 followed by 24-h exposure to HAs (3 mg/ml)), the “reduction in the sub-G1 phase compared to HAs alone” value was roughly 50%. Moreover, the sub-G1 phase in data set [4] (50 AM SB203580 preincubation followed by 24-h exposure to HAs (3 mg/ml)) worked out at 27.39%.

Take `Oc1c2ccccc2c2c3c(cccc13)N=N2` [SP600125, 1,9-pyrazoloanthrone]: the “effect of inhibitor on HAs-induced apoptosis (cytotoxic action of HAs)” value in data set [4] was “did not reduce the cytotoxic action of HAs”.

Take `COC[C@H]1OC(=O)c2coc3c2[C@@]1(C)C1=C(C3=O)[C@@H]2CCC(=O)[C@@]2(C)C[C@H]1OC(C)=O` [wortmannin]: the “effect of inhibitor on HAs-induced apoptosis (cytotoxic action of HAs)” value in data set [4] is listed as “did not reduce the cytotoxic action of HAs”.

For the origin of these results see patent publication US8007835B2, “Hibiscusanthocyanins for inhibiting cancers” (Aiken Biotechnology International Co., Ltd., priority 2005, dated 2011).
